Source: paper PMC5218480 (PLoS ONE, 2017)

System: MV-4-11 cells
Experiment: Gene expression microarray analysis (Affymetrix PrimeView) and GSEA
Format: cell-based, human
Parameters: RFU PODN (11730768_x_at) / Fold change /veh PODN (11730768_x_at) / RFU LINC00158 (11744669_a_at) / Fold change /veh LINC00158 (11744669_a_at) / RFU DUSP10 (11751237_a_at) / Fold change /veh DUSP10 (11751237_a_at) / RFU ID3 (11757404_x_at) / Fold change /veh ID3 (11757404_x_at) / RFU PLEKHG5 (11737974_s_at) / Fold change /veh PLEKHG5 (11737974_s_at) / RFU LRRC4B (11730491_at) / Fold change /veh LRRC4B (11730491_at) / RFU GIMAP4 (11747438_a_at) / Fold change /veh GIMAP4 (11747438_a_at) / RFU KRT8 (11758183_x_at) / Fold change /veh KRT8 (11758183_x_at) / RFU CNN1 (11734310_a_at) / Fold change /veh CNN1 (11734310_a_at) / RFU VPS37D (11726825_at) / Fold change /veh VPS37D (11726825_at) / RFU C10orf10 (11716522_x_at) / Fold change /veh C10orf10 (11716522_x_at) / RFU KIR2DL2 /// KIR2DL4 /// KIR2DL5A /// KIR2DL5B /// KIR2DS1 /// KIR2DS2 /// KIR2DS3 /// KIR2DS4 /// KIR3DL3 /// KIR3DL3 /// KIR3DS1 (11738374_at) / Fold change /veh KIR2DL2 /// KIR2DL4 /// KIR2DL5A /// KIR2DL5B /// KIR2DS1 /// KIR2DS2 /// KIR2DS3 /// KIR2DS4 /// KIR3DL3 /// KIR3DL3 /// KIR3DS1 (11738374_at) / RFU C1QL1 (11718748_at) / Fold change /veh C1QL1 (11718748_at) / RFU TMPRSS4 (11747572_a_at) / Fold change /veh TMPRSS4 (11747572_a_at) / RFU HAMP (11756126_x_at) / Fold change /veh HAMP (11756126_x_at) / RFU RNFT2 (11725882_a_at) / Fold change /veh RNFT2 (11725882_a_at) / RFU NR4A2 (11747474_a_at) / Fold change /veh NR4A2 (11747474_a_at) / RFU ABCC12 (11746883_a_at) / Fold change /veh ABCC12 (11746883_a_at) / RFU TMEM136 (11760407_x_at) / Fold change /veh TMEM136 (11760407_x_at) / RFU CLDN22 /// WWC2 (11732394_at) / Fold change /veh CLDN22 /// WWC2 (11732394_at) / RFU HLA-DPB1 (11760878_x_at) / Fold change /veh HLA-DPB1 (11760878_x_at) / RFU SPINT1 (11716480_a_at) / Fold change /veh SPINT1 (11716480_a_at) / RFU GAP43 (11754022_s_at) / Fold change /veh GAP43 (11754022_s_at) / RFU A4GNT (11735810_at) / Fold change /veh A4GNT (11735810_at) / RFU PRB3 (11715151_x_at) / Fold change /veh PRB3 (11715151_x_at) / RFU TUBB4B (11761932_at) / Fold change /veh TUBB4B (11761932_at) / RFU CAPN14 (11732068_a_at) / Fold change /veh CAPN14 (11732068_a_at) / RFU TMCC2 (11721928_a_at) / Fold change /veh TMCC2 (11721928_a_at) / RFU IRGQ (11745062_a_at) / Fold change /veh IRGQ (11745062_a_at) / RFU FAM174B (11720279_a_at) / Fold change /veh FAM174B (11720279_a_at) / RFU TMPRSS4 (11748680_a_at) / Fold change /veh TMPRSS4 (11748680_a_at) / RFU FAM212B (11763350_a_at) / Fold change /veh FAM212B (11763350_a_at) / RFU PLEKHG5 (11743358_a_at) / Fold change /veh PLEKHG5 (11743358_a_at) / RFU ZSCAN30 (11745921_a_at) / Fold change /veh ZSCAN30 (11745921_a_at) / RFU CMKLR1 (11741424_a_at) / Fold change /veh CMKLR1 (11741424_a_at) / RFU LOC101060620 /// MAPK8IP1 (11723275_at) / Fold change /veh LOC101060620 /// MAPK8IP1 (11723275_at) / RFU SPTSSB (11747773_x_at) / Fold change /veh SPTSSB (11747773_x_at) / RFU PRSS12 (11739890_at) / Fold change /veh PRSS12 (11739890_at) / RFU BIN1 (11741810_x_at) / Fold change /veh BIN1 (11741810_x_at) / RFU WNT11 (11732464_a_at) / Fold change /veh WNT11 (11732464_a_at) / RFU C10orf10 (11716521_a_at) / Fold change /veh C10orf10 (11716521_a_at) / RFU C5orf56 (11738089_at) / Fold change /veh C5orf56 (11738089_at) / RFU CYB561 (11721691_x_at) / Fold change /veh CYB561 (11721691_x_at) / RFU ANKRD19P (11752326_a_at) / Fold change /veh ANKRD19P (11752326_a_at) / RFU OR2T12 /// OR2T33 /// OR2T8 (11738714_s_at) / Fold change /veh OR2T12 /// OR2T33 /// OR2T8 (11738714_s_at) / RFU VCAN (11748164_a_at) / Fold change /veh VCAN (11748164_a_at) / RFU JSRP1 (11732532_at) / Fold change /veh JSRP1 (11732532_at) / RFU KRTAP10-11 (11738290_x_at) / Fold change /veh KRTAP10-11 (11738290_x_at) / RFU MYO3A (11730013_a_at) / Fold change /veh MYO3A (11730013_a_at) / RFU EBF3 (11725865_a_at) / Fold change /veh EBF3 (11725865_a_at) / RFU CAMK2N1 (11719241_x_at) / Fold change /veh CAMK2N1 (11719241_x_at) / RFU C5orf56 (11738088_a_at) / Fold change /veh C5orf56 (11738088_a_at) / RFU OLFML3 (11715873_a_at) / Fold change /veh OLFML3 (11715873_a_at) / RFU LOC100653217 /// NTM (11731650_a_at) / Fold change /veh LOC100653217 /// NTM (11731650_a_at) / RFU MAPK11 (11762145_a_at) / Fold change /veh MAPK11 (11762145_a_at) / RFU FIZ1 (11724087_x_at) / Fold change /veh FIZ1 (11724087_x_at) / RFU OASL (11726364_x_at) / Fold change /veh OASL (11726364_x_at) / RFU SOX15 (11748057_x_at) / Fold change /veh SOX15 (11748057_x_at) / RFU CD79A (11719716_a_at) / Fold change /veh CD79A (11719716_a_at) / RFU HIST1H1D (11736915_at) / Fold change /veh HIST1H1D (11736915_at) / RFU CASKIN2 (11723855_a_at) / Fold change /veh CASKIN2 (11723855_a_at) / RFU LOC730098 (11760151_x_at) / Fold change /veh LOC730098 (11760151_x_at) / RFU OR4N2 (11742367_at) / Fold change /veh OR4N2 (11742367_at) / RFU PRRT2 (11749266_a_at) / Fold change /veh PRRT2 (11749266_a_at) / RFU SNX32 (11753110_a_at) / Fold change /veh SNX32 (11753110_a_at) / RFU CDHR5 (11726645_a_at) / Fold change /veh CDHR5 (11726645_a_at) / RFU RCAN1 (11760418_a_at) / Fold change /veh RCAN1 (11760418_a_at) / RFU FAM167A (11723789_a_at) / Fold change /veh FAM167A (11723789_a_at) / RFU FAM26E (11764081_at) / Fold change /veh FAM26E (11764081_at) / RFU ISYNA1 (11749810_s_at) / Fold change /veh ISYNA1 (11749810_s_at) / RFU ACY1 (11761880_at) / Fold change /veh ACY1 (11761880_at) / RFU 11764098_at / Fold change /veh 11764098_at / RFU SAMD14 (11745864_x_at) / Fold change /veh SAMD14 (11745864_x_at) / RFU NPB (11741838_a_at) / Fold change /veh NPB (11741838_a_at) / RFU TMPRSS6 (11731388_a_at) / Fold change /veh TMPRSS6 (11731388_a_at) / RFU KRTAP10-2 (11738614_at) / Fold change /veh KRTAP10-2 (11738614_at) / RFU ARHGAP8 /// PRR5-ARHGAP8 (11727945_x_at) / Fold change /veh ARHGAP8 /// PRR5-ARHGAP8 (11727945_x_at) / RFU KRTAP5-7 /// NADSYN1 (11734609_at) / Fold change /veh KRTAP5-7 /// NADSYN1 (11734609_at) / RFU RASL12 (11751679_a_at) / Fold change /veh RASL12 (11751679_a_at) / RFU CDKN2B (11736163_a_at) / Fold change /veh CDKN2B (11736163_a_at) / RFU PRF1 (11729649_at) / Fold change /veh PRF1 (11729649_at) / RFU, ZNF638 /// ZNF638-IT1 / Fold change vs veh, ZNF638 /// ZNF638-IT1 / RFU, PANK3 / Fold change vs veh, PANK3 / RFU, SH3YL1 / Fold change vs veh, SH3YL1 / RFU, ZEB2 / Fold change vs veh, ZEB2 / RFU, NRIP1 / Fold change vs veh, NRIP1 / RFU, PTTG1IP / Fold change vs veh, PTTG1IP / RFU, CAPN2 / Fold change vs veh, CAPN2 / RFU, MED14 / Fold change vs veh, MED14 / RFU, SNORA58 / Fold change vs veh, SNORA58 / RFU, C1orf63 / Fold change vs veh, C1orf63 / RFU, LRRFIP1 / Fold change vs veh, LRRFIP1 / RFU, NDUFAF7 / Fold change vs veh, NDUFAF7 / RFU, SLC12A2 / Fold change vs veh, SLC12A2 / RFU, IBTK / Fold change vs veh, IBTK / RFU, ESF1 / Fold change vs veh, ESF1 / Fold change vs veh, TMEM50B / RFU, TAOK1 / Fold change vs veh, TAOK1 / RFU, ACBD3 / Fold change vs veh, ACBD3 / RFU, TMA16 / Fold change vs veh, TMA16 / RFU, RWDD3 / Fold change vs veh, RWDD3 / RFU, BCAT1 / Fold change vs veh, BCAT1 / RFU, EDEM3 / Fold change vs veh, EDEM3 / RFU, TMEM33 / Fold change vs veh, TMEM33 / RFU, WDR75 / Fold change vs veh, WDR75 / RFU, AHCTF1 / Fold change vs veh, AHCTF1 / RFU, TFRC / Fold change vs veh, TFRC / RFU, ZDHHC17 / Fold change vs veh, ZDHHC17 / RFU, NOM1 / Fold change vs veh, NOM1 / RFU, ARL8B / Fold change vs veh, ARL8B / RFU, ZBTB11 / Fold change vs veh, ZBTB11 / RFU, TAMM41 / Fold change vs veh, TAMM41 / RFU, KIAA1704 /// LOC100996395 / Fold change vs veh, KIAA1704 /// LOC100996395 / RFU, ING1 / Fold change vs veh, ING1 / RFU, TRMT61B / Fold change vs veh, TRMT61B / RFU, FUBP3 / Fold change vs veh, FUBP3 / RFU, TP53 / Fold change vs veh, TP53 / RFU, TNKS2 / Fold change vs veh, TNKS2 / RFU, ZFP14 / Fold change vs veh, ZFP14 / RFU, ACTR2 / Fold change vs veh, ACTR2 / RFU, PPP3R1 / Fold change vs veh, PPP3R1 / RFU, PIK3R1 / Fold change vs veh, PIK3R1 / RFU, HNRNPA1 / Fold change vs veh, HNRNPA1 / RFU, RNF170 / Fold change vs veh, RNF170 / RFU, ZNF28 / Fold change vs veh, ZNF28 / RFU, RNGTT / Fold change vs veh, RNGTT / RFU, OGT / Fold change vs veh, OGT / RFU, BRD1 / Fold change vs veh, BRD1 / RFU, MARS / Fold change vs veh, MARS / RFU, ZNF655 / Fold change vs veh, ZNF655 / RFU, FAHD1 / Fold change vs veh, FAHD1 / RFU, BDP1 / Fold change vs veh, BDP1 / RFU, LRRCC1 / Fold change vs veh, LRRCC1 / RFU, ARID1A / Fold change vs veh, ARID1A / RFU, ZNF146 / Fold change vs veh, ZNF146 / RFU, ZNF330 / Fold change vs veh, ZNF330 / RFU, GPN3 / Fold change vs veh, GPN3 / RFU, C9orf123 / Fold change vs veh, C9orf123 / RFU, N4BP2L2 / Fold change vs veh, N4BP2L2 / RFU, ARFIP1 / Fold change vs veh, ARFIP1 / RFU, FAM179B / Fold change vs veh, FAM179B / RFU, BCL10 / Fold change vs veh, BCL10 / RFU, UHRF1BP1L / Fold change vs veh, UHRF1BP1L / RFU, BET1 / Fold change vs veh, BET1 / RFU, CNOT2 / Fold change vs veh, CNOT2 / RFU, ZNF268 / Fold change vs veh, ZNF268 / Fold change vs veh, ZNF507 / RFU, DGCR2 / Fold change vs veh, DGCR2 / RFU, WDSUB1 / Fold change vs veh, WDSUB1 / Fold change vs veh, HSP90B1 /// MIR3652 / RFU, ADSS / Fold change vs veh, ADSS / RFU, GK / Fold change vs veh, GK / RFU, ZNF148 / Fold change vs veh, ZNF148 / RFU, TAF9 / Fold change vs veh, TAF9 / RFU, SLC1A5 / Fold change vs veh, SLC1A5 / RFU, SLMO2 / Fold change vs veh, SLMO2 / RFU, ABCC4 / Fold change vs veh, ABCC4 / RFU, LOC101060439 /// RAP1B / Fold change vs veh, LOC101060439 /// RAP1B / RFU, RFX7 / Fold change vs veh, RFX7 / RFU, GTPBP10 / Fold change vs veh, GTPBP10 / RFU, CNEP1R1 / Fold change vs veh, CNEP1R1 / RFU, BIVM-ERCC5 /// ERCC5 / Fold change vs veh, BIVM-ERCC5 /// ERCC5 / RFU, ILF3 / Fold change vs veh, ILF3 / RFU 11762660_at / Fold change /veh 11762660_at / RFU VCAN (11757783_s_at) / Fold change /veh VCAN (11757783_s_at) / RFU DDX43 (11728927_at) / Fold change /veh DDX43 (11728927_at) / RFU KRT8 (11758188_x_at) / Fold change /veh KRT8 (11758188_x_at) / RFU NKD1 (11759106_at) / Fold change /veh NKD1 (11759106_at) / RFU SRD5A1 (11742802_a_at) / Fold change /veh SRD5A1 (11742802_a_at) / RFU TPSAB1 /// TPSB2 (11721975_s_at) / Fold change /veh TPSAB1 /// TPSB2 (11721975_s_at) / RFU GSTM3 (11746129_a_at) / Fold change /veh GSTM3 (11746129_a_at) / RFU IL23R (11737362_x_at) / Fold change /veh IL23R (11737362_x_at) / RFU TMEM51 (11727254_a_at) / Fold change /veh TMEM51 (11727254_a_at) / RFU PIWIL2 (11732686_x_at) / Fold change /veh PIWIL2 (11732686_x_at) / RFU ORM1 (11744905_x_at) / Fold change /veh ORM1 (11744905_x_at) / RFU CCDC152 (11743942_at) / Fold change /veh CCDC152 (11743942_at) / RFU ECM1 (11717891_a_at) / Fold change /veh ECM1 (11717891_a_at) / RFU IL23R (11748794_a_at) / Fold change /veh IL23R (11748794_a_at) / RFU TNFAIP8L3 (11732012_x_at) / Fold change /veh TNFAIP8L3 (11732012_x_at) / RFU MBOAT4 (11741988_at) / Fold change /veh MBOAT4 (11741988_at) / RFU 11764193_at / Fold change /veh 11764193_at / RFU TMEM53 (11763286_at) / Fold change /veh TMEM53 (11763286_at) / RFU MAGEB2 (11727129_at) / Fold change /veh MAGEB2 (11727129_at) / RFU TMEM200A (11744735_a_at) / Fold change /veh TMEM200A (11744735_a_at) / RFU CCDC152 (11751479_a_at) / Fold change /veh CCDC152 (11751479_a_at) / RFU FAM211A (11726209_a_at) / Fold change /veh FAM211A (11726209_a_at) / RFU RGS16 (11746705_a_at) / Fold change /veh RGS16 (11746705_a_at) / RFU VCAN (11755009_s_at) / Fold change /veh VCAN (11755009_s_at) / RFU RHOB (11743442_s_at) / Fold change /veh RHOB (11743442_s_at) / RFU RGS16 (11720943_a_at) / Fold change /veh RGS16 (11720943_a_at) / RFU RGS16 (11720944_at) / Fold change /veh RGS16 (11720944_at) / RFU, VPS4B / Fold change vs veh, VPS4B / RFU, CREB1 / Fold change vs veh, CREB1 / RFU, DNAJC13 / Fold change vs veh, DNAJC13 / RFU, GNAQ / Fold change vs veh, GNAQ / RFU, CDK5R1 / Fold change vs veh, CDK5R1 / RFU, ZRANB3 / Fold change vs veh, ZRANB3 / RFU, CUL4A / Fold change vs veh, CUL4A / RFU, CCNY / Fold change vs veh, CCNY / RFU, UFL1 / Fold change vs veh, UFL1 / RFU, COG3 / Fold change vs veh, COG3 / RFU, DIAPH2 / Fold change vs veh, DIAPH2 / RFU, SKA2 / Fold change vs veh, SKA2 / RFU, AFF3 / Fold change vs veh, AFF3 / RFU, LMF1 / Fold change vs veh, LMF1 / RFU, IPO11 / Fold change vs veh, IPO11 / RFU, DFFB / Fold change vs veh, DFFB / RFU, FOXP1 / Fold change vs veh, FOXP1 / RFU, CARD8 / Fold change vs veh, CARD8 / RFU, STRN3 / Fold change vs veh, STRN3 / RFU, ADK / Fold change vs veh, ADK / RFU, RASSF2 / Fold change vs veh, RASSF2 / RFU, WIPF1 / Fold change vs veh, WIPF1 / RFU, LARP1B / Fold change vs veh, LARP1B / RFU, RASA1 / Fold change vs veh, RASA1 / RFU, RB1 / Fold change vs veh, RB1 / RFU, PPFIA1 / Fold change vs veh, PPFIA1 / RFU, MAT2A / Fold change vs veh, MAT2A / RFU, CCT5 / Fold change vs veh, CCT5 / RFU, WDR92 / Fold change vs veh, WDR92 / RFU, CUX1 / Fold change vs veh, CUX1 / RFU, TTC7A / Fold change vs veh, TTC7A / RFU, TMEM135 / Fold change vs veh, TMEM135 / RFU, DEPTOR / Fold change vs veh, DEPTOR / RFU, CPM / Fold change vs veh, CPM / RFU, DNAJB6 / Fold change vs veh, DNAJB6 / RFU, CACNA2D3 / Fold change vs veh, CACNA2D3 / RFU, DTX4 / Fold change vs veh, DTX4 / RFU, TFCP2 / Fold change vs veh, TFCP2 / RFU, GMCL1 /// GMCL1P1 / Fold change vs veh, GMCL1 /// GMCL1P1 / RFU, AEBP2 / Fold change vs veh, AEBP2 / RFU, SNHG1 /// SNORD22 /// SNORD25 /// SNORD26 /// SNORD27 /// SNORD28 /// SNORD29 /// SNORD31 / Fold change vs veh, SNHG1 /// SNORD22 /// SNORD25 /// SNORD26 /// SNORD27 /// SNORD28 /// SNORD29 /// SNORD31 / Fold change (Aza/veh), C12orf56 (ProbeSet 11735607_a_at) / Fold change (ACY-1035/veh), C12orf56 (ProbeSet 11735607_a_at) / Fold change (Aza/veh), FGFR1OP (ProbeSet 11751329_s_at) / Fold change (ACY-1035/veh), FGFR1OP (ProbeSet 11751329_s_at) / Fold change (Aza/veh), VPS36 (ProbeSet 11739960_a_at) / Fold change (ACY-1035/veh), VPS36 (ProbeSet 11739960_a_at) / RFU SYPL1 (11715823_x_at) / Fold change /veh SYPL1 (11715823_x_at) / RFU IGFBP7 (11715501_s_at) / Fold change /veh IGFBP7 (11715501_s_at) / RFU REEP3 (11722064_at) / Fold change /veh REEP3 (11722064_at) / RFU IGLL1 (11728026_x_at) / Fold change /veh IGLL1 (11728026_x_at): dose or concentration left out as unconfirmed
Conditions: ProbeSet 11739106_a_at; LIST B

## Nc1ccc(-c2cccs2)cc1NC(=O)c1ccc2c(c1)cc(C1CC1)n2CCN1CCOCC1 [ACY-1035]
  Fold change vs veh, TMEM33: 0.87
